“And” between values parts separate entries of the source, which are not always exact repeats. Identical values can stand only once. Marks after values point to notes of the source that are not given here.
Key:
Experiment in all cases: Checkerboard assay (FIC index)
MSSA = format: cell-based, Staphylococcus aureus
Procedure: (§1) Checkerboard assays were carried out as described by Bonapace et al.
(§2) Diagnostic Microbiology and Infectious Diseases 2002; 44:363-366. In brief, checkerboard assays were performed in 96 well microtitre trays using an 8-by-8 well configuration. […] 96-well custom designed microtitre plates contained 100 ul/well of cation adjusted Mueller-Hinton broth (eg. for Enterobacteriaceae) with or without lysed horse blood (2-5% V/V) [eg. for S. pneumoniae] and were inoculated to achieve a final concentration of approximately 5×10^5 CFU/ml and incubated in ambient air for 24 hours prior to reading. Colony counts were performed periodically to confirm inocula. Quality control was performed every two weeks using a variety of ATCC QC organisms including; S. pneumoniae 49619, S. aureus 29213, E. faecalis 29212, E. coli 25922 and P. aeruginosa 27853. […] All peptides were assessed for synergy with β-lactams and vancomycin. For all antimicrobials as well as the peptides, CLSI criteria were used.
(§3) The fractional inhibitory concentration index (FIC index) was used to interpret synergy, antagonism or additivity/indifference. FIC index=FIC of drug A+FIC of drug B where:
(§4) The FIC of drug A and drug B was calculated as follows, FIC drug A=MIC of drug A in combination/MIC of drug A alone and FIC of drug B=MIC of drug B in combination/MIC of drug B alone. Synergy was defined as FIC index ≦0.5, additivity/indifference defined as a FIC between 0.5 and 4 and antagonism defined as an FIC index >4.
(§5) The checkerboard assays were carried out as described by Eliopoulos and Moellering (Chapter 9) in Antibiotic in Laboratory Medicine, Lorian Ed. 1996 as well as Bonapace et al. Diagnostic Microbiology and Infectious Diseases 2002; 44:363-366 and Bonapace et al. Diagnostic Microbiology and Infectious Diseases 2000; 38:43-50. In brief, checkerboard assays were performed in 96 well microtitre trays using an 8-by-8 well configuration. […] 96-well custom designed microtitre plates contained 100 ul/well of cation adjusted Mueller-Hinton broth (eg. for Enterobacteriaceae) with or without lysed horse blood (2-5% V/V) [eg. for S. pneumoniae] and were inoculated to achieve a final concentration of approximately 5×10^5 CFU/ml and incubated in ambient air for 24 hours prior to reading. Colony counts were performed periodically to confirm inocula. Quality control was performed every two weeks using a variety of ATCC QC organisms including; S. pneumoniae 49619, S. aureus 29213, E. faecalis 29212, E. coli 25922 and P. aeruginosa 27853. For all antimicrobials as well as PEP35, CLSI criteria was used.
(§6) The FIC of drug A and drug B is calculated as follows, FIC drug A=MIC of drug A in combination/MIC of drug A alone and FIC of drug B=MIC of drug B in combination/MIC of drug B alone. Synergy is defined as FIC index ≦0.5, additivity/indifference FIC >0.5-4 and antagonism FIC index >4.
(§7) Antimicrobials used included PEP35, cefazolin, ceftriaxone, vancomycin, linezolid, tigecycline and daptomycin versus Gram-positive cocci and PEP35, gentamicin, levofloxacin, piperacillin/tazobactam, meropenem and colistin (Polymyxin E) versus Gram-negative bacilli. These agents were obtained as laboratory grade powders from their respective manufacturers. Stock solutions were prepared and dilutions made as described by the Clinical Laboratory Standards Institute (2005 CLSI).
(§8) Organisms included Gram-positive cocci (2 strains of each): Methicillin-susceptible Staphylococcus aureus (MSSA), community-associated (CA) and healthcare-associated (HA) methicillin-resistant Staphylococcus aureus (MRSA), vancomycin-intermediate Staphylococcus aureus (VISA), vancomycin-resistant Staphylococcus aureus (VRSA), methicillin-resistant Staphylococcus epidermidis (MRSE), Streptococcus pyogenes, Streptococcus agalactiae, Streptococcus pneumoniae, Enterococcus faecalis, Enterococcus faecium and vancomycin-resistant enterococcus (VRE). […]

VISA = format: cell-based, Staphylococcus aureus
Procedure: as §1, §2, §3, §4, §5, §6, §7, §8

MRSE = format: cell-based, Staphylococcus epidermidis; conditions: antibiotic combined with PEP35
Procedure: as §5, §3, §6, §7
Organisms included Gram-positive cocci (2 strains of each): Methicillin-susceptible Staphylococcus aureus (MSSA), community-associated (CA) and healthcare-associated (HA) methicillin-resistant Staphylococcus aureus (MRSA), vancomycin-intermediate Staphylococcus aureus (VISA), vancomycin-resistant Staphylococcus aureus (VRSA), methicillin-resistant Staphylococcus epidermidis (MRSE), Streptococcus pyogenes, Streptococcus agalactiae, Streptococcus pneumoniae, Enterococcus faecalis, Enterococcus faecium and vancomycin-resistant enterococcus (VRE). Gram-negative bacilli tested (2 strains of each) included: E. coli, Pseudomonas aeruginosa, Klebsiella pneumoniae, K. oxytoca, Enterobacter cloacae, P. mirabilis and Stenotrophomonas maltophilia. MIC testing, following two subcultures from frozen stock were determined by the CLSI 2005 approved broth microdilution method.

E. coli = format: cell-based, Escherichia coli; conditions: for synergy (in words): with β-lactams, against E. coli
Procedure: as §1, §2, §3, §4, §5, §6, §7, §8

[1] = antibiotic combined with PEP35, MSSA 83424
[2] = β-lactam combined with HybPEP35-1, MSSA 79333
[3] = β-lactam combined with PEP-52, MSSA 79333
[4] = β-lactam combined with Scrambled PEP35, MSSA 79333
[5] = antibiotic combined with PEP35, VISA 92
[6] = antibiotic combined with PEP35, VISA 95
[7] = β-lactam combined with HybPEP35-1, VISA 96
[8] = β-lactam combined with PEP-52, VISA 96
[9] = β-lactam combined with Scrambled PEP35, VISA 96
[10] = antibiotic combined with PEP35, E. coli 69716
[11] = β-lactam combined with HybPEP35-1, E. coli 69716
[12] = β-lactam combined with PEP-52, E. coli 69716
[13] = β-lactam combined with Scrambled PEP35, E. coli 69716
[14] = antibiotic combined with PEP35, MSSA 79333
[15] = antibiotic combined with PEP35, VISA 96
[16] = antibiotic combined with PEP35, E. coli 70752

Compound: CO/N=C(\C(=O)N[C@@H]1C(=O)N2C(C(=O)O)=C(CSc3nc(=O)c(=O)[nH]n3C)CS[C@H]12)c1csc(N)n1 [Ceftriaxone]
- Avg ΣFIC (range) (MSSA; [1]): 0.80 (0.5-1.12)
- Avg ΣFIC (range) (MSSA; [2]): 0.98
- Avg ΣFIC (range) (MSSA; [3]): >1*
- Avg ΣFIC (range) (MSSA; [4]): 0.98
- Avg ΣFIC (range) (VISA; [5]): 0.52 (0.28-1.06)
- Avg ΣFIC (range) (VISA; [6]): 0.28 (0.09-0.56) and 0.37 (0.18-0.56)
- Avg ΣFIC (range) (VISA; [7]): 0.26
- Avg ΣFIC (range) (VISA; [8]): >1*
- Avg ΣFIC (range) (VISA; [9]): 0.26
- Avg ΣFIC (range) (MRSE; MRSE 79617): 0.88 (0.53-1.25)
- Avg ΣFIC (range) (MRSE; MRSE 83100): 1.05 (0.75-1.25)
- Avg ΣFIC (range) (E. coli; [10]): 1.04
- Avg ΣFIC (range) (E. coli; [11]): 0.41
- Avg ΣFIC (range) (E. coli; [12]): >1*
- Avg ΣFIC (range) (E. coli; [13]): 0.41

Compound: CN(C)c1cc(NC(=O)CNC(C)(C)C)c(O)c2c1C[C@H]1C[C@H]3[C@H](N(C)C)C(O)=C(C(N)=O)C(=O)[C@@]3(O)C(O)=C1C2=O [Tigecycline, tigecycline]
- Avg ΣFIC (range) (MSSA; [14]): 0.99 (0.62-1.5)
- Avg ΣFIC (range) (MSSA; [1]): 0.85 (0.5-1.12)
- Avg ΣFIC (range) (VISA; [5]): 0.56 (0.31-1.06)
- Avg ΣFIC (range) (VISA; [6]): 0.46 (0.37-0.56) and 0.43 (0.31-0.56)
- Avg ΣFIC (range) (VISA; [15]): 0.91 (0.62-1.12)
- Avg ΣFIC (range) (MRSE; MRSE 79617): 1.19 (1.03-1.5)
- Avg ΣFIC (range) (MRSE; MRSE 83100): 1.21 (1.03-1.5)

Compound: LKQKIKHVVKLKVVVKLRSQLVKRKQN (listed as Mus sp.) [PEP35]
- synergy (in words) (E. coli): not synergistic

Compound: C[C@@H](O)[C@H]1C(=O)N2C(C(=O)O)=C(S[C@@H]3CN[C@H](C(=O)N(C)C)C3)[C@H](C)[C@H]12 [Meropenem]
- Avg ΣFIC (range) (MSSA; [14]): 0.52
- Avg ΣFIC (range) (MSSA; [2]): 1.11
- Avg ΣFIC (range) (MSSA; [3]): >1*
- Avg ΣFIC (range) (MSSA; [4]): 1.11
- Avg ΣFIC (range) (VISA; [15]): 0.41
- Avg ΣFIC (range) (VISA; [7]): 0.45
- Avg ΣFIC (range) (VISA; [8]): >1*
- Avg ΣFIC (range) (VISA; [9]): 0.45
- Avg ΣFIC (range) (E. coli; [16]): 1.21 (1.03-1.5)
- Avg ΣFIC (range) (E. coli; [11]): 1.21
- Avg ΣFIC (range) (E. coli; [12]): >1*
- Avg ΣFIC (range) (E. coli; [13]): 1.21

Compound: KKKKKLQLQLNLIKKKVQVSVVVVRRH (Reordered human peptide sequence) [Scrambled PEP35]
- synergy (in words) (E. coli): not synergistic (except at low level with ceftriaxone)

Compound: CN[C@H](CC(C)C)C(=O)N[C@H]1C(=O)N[C@@H](CC(N)=O)C(=O)N[C@H]2C(=O)N[C@H]3C(=O)N[C@H](C(=O)N[C@H](C(=O)O)c4cc(O)cc(O)c4-c4cc3ccc4O)[C@H](O)c3ccc(c(Cl)c3)Oc3cc2cc(c3O[C@@H]2O[C@H](CO)[C@@H](O)[C@H](O)[C@H]2O[C@H]2C[C@](C)(N)[C@H](O)[C@H](C)O2)Oc2ccc(cc2Cl)[C@H]1O [Vancomycin]
- Avg ΣFIC (range) (MSSA; [14]): 1.11 (1.0-1.25)
- Avg ΣFIC (range) (MSSA; [1]): 1.19 (1.03-1.5)
- Avg ΣFIC (range) (VISA; [5]): 1.1 (1.0-1.25)
- Avg ΣFIC (range) (VISA; [6]): 1.1 (1.03-1.25)
- Avg ΣFIC (range) (VISA; [15]): 0.88 (0.53-0.125)
- Avg ΣFIC (range) (MRSE; MRSE 79617): 0.99 (0.62-1.25)
- Avg ΣFIC (range) (MRSE; MRSE 83100): 0.60 (0.31.12) rpt

Compound: Cc1nnc(SCC2=C(C(=O)O)N3C(=O)[C@@H](NC(=O)Cn4cnnn4)[C@H]3SC2)s1 [Cefazolin]
- Avg ΣFIC (range) (MSSA; [1]): 1.02 (0.75-1.25)
- Avg ΣFIC (range) (MSSA; [2]): 0.57
- Avg ΣFIC (range) (MSSA; [3]): >1*
- Avg ΣFIC (range) (MSSA; [4]): 0.57
- Avg ΣFIC (range) (VISA; [5]): 0.33 (0.18-0.53) and 0.45 (0.18-1.015)
- Avg ΣFIC (range) (VISA; [6]): 0.49 (0.31-0.62) and 0.37 (0.18-0.56)
- Avg ΣFIC (range) (VISA; [7]): 0.30
- Avg ΣFIC (range) (VISA; [8]): >1*
- Avg ΣFIC (range) (VISA; [9]): 0.30
- Avg ΣFIC (range) (MRSE; MRSE 79617): 0.88 (0.53-1.25)
- Avg ΣFIC (range) (MRSE; MRSE 83100): 0.52 (0.37-0.62)
- Avg ΣFIC (range) (E. coli; [10]): 1.1
- Avg ΣFIC (range) (E. coli; [11]): 1.1
- Avg ΣFIC (range) (E. coli; [12]): >1*
- Avg ΣFIC (range) (E. coli; [13]): 1.1

Compound: piperacillin/tazobactam
- Avg ΣFIC (range) (E. coli; [10]): 0.87 (0.56-1.12) and 0.63 (0.5-1.03)
- Avg ΣFIC (range) (E. coli; [16]): 0.98 (0.62-1.25) and 0.63 (0.24-1.03)
- Avg ΣFIC (range) (E. coli; [11]): 0.59
- Avg ΣFIC (range) (E. coli; β-lactam combined with HybPEP35-1, E. coli 70752): 0.67
- Avg ΣFIC (range) (E. coli; [12]): >1*
- Avg ΣFIC (range) (E. coli; β-lactam combined with PEP-52, E. coli 70752): >1*
- Avg ΣFIC (range) (E. coli; [13]): 0.59
- Avg ΣFIC (range) (E. coli; β-lactam combined with Scrambled PEP35, E. coli 70752): 0.67

Compound: CCCCCCCCCC(=O)N[C@@H](Cc1c[nH]c2ccccc12)C(=O)N[C@H](CC(N)=O)C(=O)N[C@@H](CC(=O)O)C(=O)N[C@@H]1C(=O)NCC(=O)N[C@@H](CCCN)C(=O)N[C@@H](CC(=O)O)C(=O)N[C@H](C)C(=O)N[C@@H](CC(=O)O)C(=O)NCC(=O)N[C@H](CO)C(=O)N[C@@H]([C@H](C)CC(=O)O)C(=O)N[C@@H](CC(=O)c2ccccc2N)C(=O)O[C@@H]1C [Daptomycin, daptomycin]
- Avg ΣFIC (range) (MSSA; [14]): 1.19 (1.03-1.5)
- Avg ΣFIC (range) (MSSA; [1]): 1.58 (1.015-2.5)
- Avg ΣFIC (range) (VISA; [5]): 1.54 (1.015-2.5)
- Avg ΣFIC (range) (VISA; [6]): 1.23 (1.06-1.5)
- Avg ΣFIC (range) (VISA; [15]): 1.21 (1.03-1.5)
- Avg ΣFIC (range) (MRSE; MRSE 79617): 1.19 (1.03-1.5)
- Avg ΣFIC (range) (MRSE; MRSE 83100): 1.1 (1.0-1.25)

Compound: CC(=O)NC[C@H]1CN(c2ccc(N3CCOCC3)c(F)c2)C(=O)O1 [Linezolid, linezolid]
- Avg ΣFIC (range) (MSSA; [14]): 1.05 (0.75-1.25)
- Avg ΣFIC (range) (MSSA; [1]): 0.74 (0.515-1.06)
- Avg ΣFIC (range) (VISA; [5]): 0.99 (0.75-1.12)
- Avg ΣFIC (range) (VISA; [6]): 0.98 (0.62-1.25)
- Avg ΣFIC (range) (VISA; [15]): 0.77 (0.56-1.06)
- Avg ΣFIC (range) (MRSE; MRSE 79617): 1.10 (0.56-1.5)
- Avg ΣFIC (range) (MRSE; MRSE 83100): 0.73 (0.515-1.12)
